In US20240208992A1, “MACROCYCLES AS CFTR MODULATORS” (Idorsia Pharmaceuticals Ltd, priority 2021, published 2024):

Biological target: human F508del-CFTR (Homo sapiens, UniProt P13569, DEL508-508)
Experiment: F508del-CFTR cell surface expression (corrector activity), DiscoveRx ß-galactosidase complementation chemiluminescence assay in recombinant U2OS cell line;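 further: U2OS cells co-expressing ProLink-tagged F508del-CFTR and a membrane-anchored enzyme acceptor, where more surface CFTR restores β-galactosidase activity measured by chemiluminescence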
Conditions: for EC50: EC50, F508del-CFTR cell surface expression, U2OS cells, 16h compound incubation, geomean values; for Emax: U2OS, in relation to Emax of corrector lumacaftor (=100%), arithmetic mean values

Sequence of human F508del-CFTR (P13569 with tags, fused parts or gaps DEL508-508): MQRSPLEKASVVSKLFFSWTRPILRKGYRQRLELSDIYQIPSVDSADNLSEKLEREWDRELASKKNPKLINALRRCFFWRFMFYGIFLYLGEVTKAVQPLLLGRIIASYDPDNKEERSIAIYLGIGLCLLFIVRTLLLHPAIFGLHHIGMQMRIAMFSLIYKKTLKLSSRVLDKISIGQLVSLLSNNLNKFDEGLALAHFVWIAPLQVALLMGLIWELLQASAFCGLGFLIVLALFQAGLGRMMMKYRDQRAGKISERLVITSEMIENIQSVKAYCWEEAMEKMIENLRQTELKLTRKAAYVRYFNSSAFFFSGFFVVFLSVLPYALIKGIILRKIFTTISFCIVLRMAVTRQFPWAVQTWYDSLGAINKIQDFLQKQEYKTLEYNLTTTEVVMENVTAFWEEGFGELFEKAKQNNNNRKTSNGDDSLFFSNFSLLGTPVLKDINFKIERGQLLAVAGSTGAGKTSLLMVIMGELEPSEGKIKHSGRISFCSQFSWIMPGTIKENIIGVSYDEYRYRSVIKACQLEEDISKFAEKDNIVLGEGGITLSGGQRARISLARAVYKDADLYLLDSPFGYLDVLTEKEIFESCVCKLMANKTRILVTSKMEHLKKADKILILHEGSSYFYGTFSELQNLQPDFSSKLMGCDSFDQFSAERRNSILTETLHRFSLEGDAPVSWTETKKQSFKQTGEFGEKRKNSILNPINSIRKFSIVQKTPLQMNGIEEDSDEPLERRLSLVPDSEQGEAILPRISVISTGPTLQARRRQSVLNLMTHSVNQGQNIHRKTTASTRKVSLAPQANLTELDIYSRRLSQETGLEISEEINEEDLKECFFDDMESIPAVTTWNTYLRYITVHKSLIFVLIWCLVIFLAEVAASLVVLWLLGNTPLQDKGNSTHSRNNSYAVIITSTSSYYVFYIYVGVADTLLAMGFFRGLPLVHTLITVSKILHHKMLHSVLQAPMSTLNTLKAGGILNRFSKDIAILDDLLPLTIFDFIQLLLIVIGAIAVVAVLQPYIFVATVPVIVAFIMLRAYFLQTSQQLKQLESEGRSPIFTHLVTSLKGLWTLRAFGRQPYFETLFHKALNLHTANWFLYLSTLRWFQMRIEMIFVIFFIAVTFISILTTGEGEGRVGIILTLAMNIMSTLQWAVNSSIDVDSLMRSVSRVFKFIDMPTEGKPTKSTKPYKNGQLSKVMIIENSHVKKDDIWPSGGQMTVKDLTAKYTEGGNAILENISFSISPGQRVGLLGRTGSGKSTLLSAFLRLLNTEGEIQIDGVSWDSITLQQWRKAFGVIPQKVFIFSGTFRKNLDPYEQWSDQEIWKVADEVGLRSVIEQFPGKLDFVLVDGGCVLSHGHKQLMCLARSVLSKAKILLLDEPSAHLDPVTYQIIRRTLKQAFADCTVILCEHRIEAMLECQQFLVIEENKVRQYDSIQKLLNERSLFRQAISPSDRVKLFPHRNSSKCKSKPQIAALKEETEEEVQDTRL

How did the EC50 turn out when Cc1cc(CCNC(=O)[C@@H]2CC(=O)N(C)[C@@H](CC(C)C)C(=O)N(C[C@H]3COc4ccccc4C3)CC(=O)N[C@H](Cc3ccccc3)COc3cnc4ccccc4c3C(=O)N2)on1 [Example 704, (3S,7S,13R)-13-benzyl-9-(((S)-chroman-3-yl)methyl)-7-isobutyl-6-methyl-N-(2-(3-methylisoxazol-5-yl)ethyl)-1,5,8,11-tetraoxo-1,2,3,4,5,6,7,8,9,10,11,12,13,14-tetradecahydro-[1]oxa[4,7,10,14]tetraazacycloheptadecino[17,16-c]quinoline-3-carboxamide] was run?
Its EC50 is 398 nM.

What about the Emax of the same molecule?
The Emax was 156%.

How did the EC50 turn out when Cc1cc(CCNC(=O)[C@@H]2CC(=O)N(C)[C@@H](CC(C)C)C(=O)N(C[C@@H]3COc4ccccc4C3)CC(=O)N[C@H](Cc3ccccc3)COc3cnc4ccccc4c3C(=O)N2)on1 [Example 705, (3S,7S,13R)-13-benzyl-9-(((R)-chroman-3-yl)methyl)-7-isobutyl-6-methyl-N-(2-(3-methylisoxazol-5-yl)ethyl)-1,5,8,11-tetraoxo-1,2,3,4,5,6,7,8,9,10,11,12,13,14-tetradecahydro-[1]oxa[4,7,10,14]tetraazacycloheptadecino[17,16-c]quinoline-3-carboxamide] was run?
The EC50 was 305 nM.

What about the Emax of the same molecule?
The Emax was 193%.

How did the EC50 turn out when Cc1cc(CCNC(=O)[C@@H]2CC(=O)N(C)[C@@H](CC(C)C)C(=O)N(C[C@H]3CCCC(C)(C)O3)CC(=O)N[C@H](Cc3ccccc3)COc3cnc4ccccc4c3C(=O)N2)on1 [Example 706, (3S,7S,13R)-13-benzyl-9-(((R)-6,6-dimethyltetrahydro-2H-pyran-2-yl)methyl)-7-isobutyl-6-methyl-N-(2-(3-methylisoxazol-5-yl)ethyl)-1,5,8,11-tetraoxo-1,2,3,4,5,6,7,8,9,10,11,12,13,14-tetradecahydro-[1]oxa[4,7,10,14]tetraazacycloheptadecino[17,16-c]quinoline-3-carboxamide] was run?
Its EC50 is 707 nM.

And the Emax?
Its Emax is 162%.

What does the source list for Cc1cc(CCNC(=O)[C@@H]2CC(=O)N(C)[C@@H](CC(C)C)C(=O)N(C[C@@H]3CCCC(C)(C)O3)CC(=O)N[C@H](Cc3ccccc3)COc3cnc4ccccc4c3C(=O)N2)on1 [Example 707, (3S,7S,13R)-13-benzyl-9-(((S)-6,6-dimethyltetrahydro-2H-pyran-2-yl)methyl)-7-isobutyl-6-methyl-N-(2-(3-methylisoxazol-5-yl)ethyl)-1,5,8,11-tetraoxo-1,2,3,4,5,6,7,8,9,10,11,12,13,14-tetradecahydro-[1]oxa[4,7,10,14]tetraazacycloheptadecino[17,16-c]quinoline-3-carboxamide]?
EC50: 502 nM; Emax: 305%

What does the source list for Cc1cc(CCNC(=O)[C@@H]2CC(=O)N(C)[C@@H](CC(C)C)C(=O)N(C)C3(CCCC3)C(=O)N[C@H](Cc3ccccc3)COc3cnc4ccccc4c3C(=O)N2)on1 [Example 708, (3′S,7′S,13′R)-13′-benzyl-7′-isobutyl-6′,9′-dimethyl-N-(2-(3-methylisoxazol-5-yl)ethyl)-1′,5′,8′,11′-tetraoxo-2′,3′,4′,5′,6′,7′,8′,9′,11′,12′,13′,14′-dodecahydro-1′H-spiro[cyclopentane-1,10′-[1]oxa[4,7,10,14]tetraazacycloheptadecino[17,16-c]quinoline]-3′-carboxamide]?
EC50: 874 nM; Emax: 195%

Cc1cc(CCNC(=O)[C@@H]2CC(=O)N(C)[C@@H](CC(C)C)C(=O)N(C)[C@H](CC3CCCCC3)C(=O)N[C@H](Cc3ccccc3)COc3cnc4ccccc4c3C(=O)N2)on1 [Example 709, (3S,7S,10R,13R)-13-benzyl-10-(cyclohexylmethyl)-7-isobutyl-6,9-dimethyl-N-(2-(3-methylisoxazol-5-yl)ethyl)-1,5,8,11-tetraoxo-1,2,3,4,5,6,7,8,9,10,11,12,13,14-tetradecahydro-[1]oxa[4,7,10,14]tetraazacycloheptadecino[17,16-c]quinoline-3-carboxamide] was tested. Which EC50 did it give?
The EC50 was 47 nM.

What about the Emax of the same molecule?
The Emax was 284%.

What does the source list for Cc1cc(CCNC(=O)[C@@H]2CC(=O)N(C)[C@@H](CC(C)C)C(=O)N(C)[C@H](C3CCCC3)C(=O)N[C@H](Cc3ccccc3)COc3cnc4ccccc4c3C(=O)N2)on1 [Example 710, (3S,7S,10R,13R)-13-benzyl-10-cyclopentyl-7-isobutyl-6,9-dimethyl-N-(2-(3-methylisoxazol-5-yl)ethyl)-1,5,8,11-tetraoxo-1,2,3,4,5,6,7,8,9,10,11,12,13,14-tetradecahydro-[1]oxa[4,7,10,14]tetraazacycloheptadecino[17,16-c]quinoline-3-carboxamide]?
EC50: 149 nM; Emax: 280%

Which results are given for Cc1cc(CCNC(=O)[C@@H]2CC(=O)N(C)[C@@H](CC(C)C)C(=O)N(C)C3(CC(F)(F)C3)C(=O)N[C@H](Cc3ccccc3)COc3cnc4ccccc4c3C(=O)N2)on1 [Example 711, (3′S,7′S,13′R)-13′-benzyl-3,3-difluoro-7′-isobutyl-6′,9′-dimethyl-N-(2-(3-methylisoxazol-5-yl)ethyl)-1′,5′,8′,11′-tetraoxo-2′,3′,4′,5′,6′,7′,8′,9′,11′,12′,13′,14′-dodecahydro-1′H-spiro[cyclobutane-1,10′-[1]oxa[4,7,10,14]tetraazacycloheptadecino[17,16-c]quinoline]-3′-carboxamide]?
EC50: 778 nM; Emax: 301%

What does the source list for Cc1cc(CCNC(=O)[C@@H]2CC(=O)N(C)[C@@H](CC(C)C)C(=O)N(C)[C@H](COCc3ccccc3)C(=O)N[C@H](Cc3ccccc3)COc3ccc4ccccc4c3C(=O)N2)on1 [Example 714, (3S,7S,10R,13R)-13-benzyl-10-((benzyloxy)methyl)-7-isobutyl-6,9-dimethyl-N-(2-(3-methylisoxazol-5-yl)ethyl)-1,5,8,11-tetraoxo-1,2,3,4,5,6,7,8,9,10,11,12,13,14-tetradecahydronaphtho[1,2-p][1]oxa[4,7,10,14]tetraazacycloheptadecine-3-carboxamide]?
EC50: 36 nM; Emax: 410%

With COc1cccc(CCNC(=O)[C@@H]2CC(=O)N(C)[C@@H](CC(C)C)C(=O)N(C)[C@@H](COCc3ccccc3)C(=O)N[C@H](Cc3ccccc3)COc3ccc4ccccc4c3C(=O)N2)c1 [Example 715, (3S,7S,10S,13R)-13-benzyl-10-((benzyloxy)methyl)-7-isobutyl-N-(3-methoxyphenethyl)-6,9-dimethyl-1,5,8,11-tetraoxo-1,2,3,4,5,6,7,8,9,10,11,12,13,14-tetradecahydronaphtho[1,2-p][1]oxa[4,7,10,14]tetraazacycloheptadecine-3-carboxamide] as the molecule, how does the EC50 read?
Its EC50 is 64 nM.

And the Emax?
The Emax was 283%.

For Cc1cc(CCNC(=O)[C@@H]2CC(=O)N(C)[C@@H](CC(C)C)C(=O)N(C)[C@@H](COCc3ccccc3)C(=O)N[C@H](Cc3ccccc3)COc3ccc4ccccc4c3C(=O)N2)on1 [Example 716, (3S,7S,10S,13R)-13-benzyl-10-((benzyloxy)methyl)-7-isobutyl-6,9-dimethyl-N-(2-(3-methylisoxazol-5-yl)ethyl)-1,5,8,11-tetraoxo-1,2,3,4,5,6,7,8,9,10,11,12,13,14-tetradecahydronaphtho[1,2-p][1]oxa[4,7,10,14]tetraazacycloheptadecine-3-carboxamide], which EC50 is on record?
The EC50 was 144 nM.

And the Emax?
Its Emax is 313%.

What does the source list for Cc1cc(CCNC(=O)[C@@H]2CC(=O)N(C)[C@@H](CC(C)C)C(=O)N(C)[C@H](C3CCCC3)C(=O)N[C@H](Cc3ccccc3)COc3cnc4ccc(F)cc4c3C(=O)N2)on1 [Example 721, (3S,7S,10R,13R)-13-benzyl-10-cyclopentyl-20-fluoro-7-isobutyl-6,9-dimethyl-N-(2-(3-methylisoxazol-5-yl)ethyl)-1,5,8,11-tetraoxo-1,2,3,4,5,6,7,8,9,10,11,12,13,14-tetradecahydro-[1]oxa[4,7,10,14]tetraazacycloheptadecino[17,16-c]quinoline-3-carboxamide]?
EC50: 142 nM; Emax: 328%

Cc1cc(CCNC(=O)[C@@H]2CC(=O)N(C)[C@@H](CC(C)C)C(=O)N(C)[C@H](Cc3ccccc3)C(=O)N[C@H](Cc3ccccc3)COc3cnc4ccc(F)cc4c3C(=O)N2)on1 [Example 722, (3S,7S,10R,13R)-10,13-Dibenzyl-20-fluoro-7-isobutyl-6,9-dimethyl-N-(2-(3-methylisoxazol-5-yl)ethyl)-1,5,8,11-tetraoxo-1,2,3,4,5,6,7,8,9,10,11,12,13,14-tetradecahydro-[1]oxa[4,7,10,14]tetraazacycloheptadecino[17,16-c]quinoline-3-carboxamide] was tested. Which EC50 did it give?
The EC50 was 101 nM.

What about the Emax of the same molecule?
Its Emax is 347%.

Which results are given for COc1nccc2c1C(=O)N[C@H](C(=O)NCCc1nc(C3CC3)no1)CC(=O)N(C)[C@@H](CC(C)C)C(=O)N(C)[C@@H](COCc1ccccc1)C(=O)N[C@H](Cc1ccccc1)CO2 [Example 724, (3R,6RS,9S,13S)-3-benzyl-6-((benzyloxy)methyl)-N-(2-(3-cyclopropyl-1,2,4-oxadiazol-5-yl)ethyl)-9-isobutyl-16-methoxy-7,10-dimethyl-5,8,11,15-tetraoxo-2,3,4,5,6,7,8,9,10,11,12,13,14,15-tetradecahydropyrido[3,4-p][1]oxa[4,7,10,14]tetraazacycloheptadecine-13-carboxamide]?
EC50: 93 nM; Emax: 345%

Which EC50 does the source give for Cc1cc(CCNC(=O)[C@@H]2CC(=O)N(C)[C@@H](CC(C)C)C(=O)N3CCNC[C@@H]3C(=O)N[C@H](Cc3ccccc3)COc3ccc4ccccc4c3C(=O)N2)on1 [Example 725, (4aR,7R,18S,22S)-7-Benzyl-22-isobutyl-21-methyl-N-(2-(3-methylisoxazol-5-yl)ethyl)-5,16,20,23-tetraoxo-2,3,4,4a,5,6,7,8,16,17,18,19,20,21,22,23-hexadecahydro-1H-naphtho[1,2-p]pyrazino[2,1-f][1]oxa[4,7,10,14]tetraazacycloheptadecine-18-carboxamide] here?
Its EC50 is 1370 nM.

What about the Emax of the same molecule?
Its Emax is 200%.

For COc1cccc(CCNC(=O)[C@@H]2CC(=O)N(C)[C@@H](CC(C)C)C(=O)N3CCNC[C@@H]3C(=O)N[C@H](Cc3ccccc3)COc3ccc4ccccc4c3C(=O)N2)c1 [Example 726, (4aR,7R,18S,22S)-7-benzyl-22-isobutyl-N-(3-methoxyphenethyl)-21-methyl-5,16,20,23-tetraoxo-2,3,4,4a,5,6,7,8,16,17,18,19,20,21,22,23-hexadecahydro-1H-naphtho[1,2-p]pyrazino[2,1-f][1]oxa[4,7,10,14]tetraazacycloheptadecine-18-carboxamide], which EC50 is on record?
The EC50 was 624 nM.

What about the Emax of the same molecule?
Its Emax is 234%.
